This is an account of results in patent US20230051589A1, “COMPOUNDS AND COMPOSITIONS FOR TREATING CONDITIONS ASSOCIATED WITH NLRP ACTIVITY” (Novartis AG, priority 2018, published 2023).

SMILES strings stand for the structures.

The subject of the first test is IL-1β production in PMA-differentiated THP-1 cells. The test is described as follows: IL-1β production in PMA-differentiated THP-1 cells stimulated with gramicidin (hTHP-1 assay, 2% fetal bovine serum; Procedures 1-3). Type of test: cell-based, human. Particulars: Homo sapiens, THP-1, hTHP-1 assay containing 2% fetal bovine serum, Table B2, class symbols; read-out: IC50. The procedure, abridged:
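IL-1β released into supernatants was read by HTRF after 2 h gramicidin (5 μM) challenge. Before challenge, compounds (3-fold dilutions, top 100 μM, 0.37% DMSO) were given 1 h on THP-1 cells differentiated with PMA (20 ng/ml, 16-18 h) and held in 2% FBS medium.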
On to `CN1CCc2ccc(S(N)(=O)=NC(=O)Nc3c4c(cc5c3CCC5)CCC4)cc2C1` (single isomer, unassigned) [Example 585, (R) or (S)-N′-((1,2,3,5,6,7-hexahydro-s-indacen-4-yl)carbamoyl)-2-methyl-1,2,3,4-tetrahydroisoquinoline-7-sulfonimidamide], for which the IC50 lay in the range of 1 to 5 µM.

`CC(C)(O)c1cnc(S(N)(=O)=NC(=O)Nc2c3c(cc4c2CCC4=O)CCC3)s1` (single isomer, unassigned) [Example 589, (R) or (S)-5-(2-hydroxypropan-2-yl)-N′-((1-oxo-1,2,3,5,6,7-hexahydro-s-indacen-4-yl)carbaamoyl) thiazole-2-sulfonimidamide]: the IC50 lay in the range of 1 to 5 µM.

For `CC(C)(O)c1ccc(S(N)(=O)=NC(=O)Nc2cc3c(c4c2CCC4)CCC3)cn1` (single isomer, unassigned) [Example 591, (R) or (S)-N′-((1,2,3,6,7,8-hexahydro-as-indacen-4-yl)carbamoyl)-6-(2-hydro\ypropan-2-yl)pyridine-3-sulfonimidamide], the IC50 fell in the range of 1 to 5 µM.

The test is the same for the next values; noted with them: Homo sapiens, THP-1, hTHP-1 assay containing 2% fetal bovine serum, Table B2, given as bound; read-out: IC50.
Take `CN1CCc2ccc(S(N)(=O)=NC(=O)Nc3c4c(cc5c3CCC5)CCC4)cc2C1` (single isomer, unassigned) [Example 584, (S) or (R)-N′-((1,2,3,5,6,7-hexahydro-s-indacen-4-yl)carbamoyl)-2-methyl-1,2,3,4-tetrahydroisoquinoline-7-sulfonimidamide]: the half-inhibitory concentration (IC50) is above 30 µM.

For the compound `NS(=O)(=NC(=O)Nc1c2c(cc3c1CCC3)CCC2)c1ccc(C2CCCC2)nc1` (single isomer, unassigned) [Example 586, (S) or (R)-6-cyclopentyl-N′-((1,2,3,5,6,7-hexahydro-s-indacen-4-yl)carbamoyl)pyridine-3-sulfonimidamide], the IC50 is above 30 µM.

In the case of `CC(C)(O)c1cnc(S(N)(=O)=NC(=O)Nc2c3c(cc4c2CCC4=O)CCC3)s1` (single isomer, unassigned) [Example 588, (S) or (R)-5-(2-hydroxypropan-2-yl)-N′-((1-oxo-1,2,3,5,6,7-hexahydro-s-indacen-4-yl)carbamoyl) thiazole-2-sulfonimidamide], the concentration for half-maximal inhibition (IC50) was above 30 µM.

Take `CC(C)(O)c1ccc(S(N)(=O)=NC(=O)Nc2cc3c(c4c2CCC4)CCC3)cn1` (single isomer, unassigned) [Example 590, (S) or (R)-N′-((1,2,3,6,7,8-hexahydro-as-indacen-4-yl)carbamoyl)-6-(2-hydroxypropan-2-yl)pyridine-3-sulfonimidamide]: the concentration for half-maximal inhibition (IC50) is above 30 µM.

Still in this test, the particulars now being: hTHP-1 assay containing 2% fetal bovine serum, Table B2, class symbols; read-out: IC50.
For `CC(C)(O)c1cc(C#N)cc(S(N)(=O)=NC(=O)Nc2c3c(c(C#N)c4c2CCC4)CCC3)c1` (single isomer, unassigned) [Example 578, (R) or (S)-3-cyano-N′-((8-cyano-1,2,3,5,6,7-hexahydro-s-indacen-4-yl)carbamoyl)-5-(2-hydroxypropan-2-yl) benzenesulfonimidamide], the IC50 is 1 to 5 µM.

Consider `CC(C)(O)c1cc(C#N)cc(S(N)(=O)=NC(=O)Nc2c3c(c(C#N)c4c2CCC4)CCC3)c1` (single isomer, unassigned) [Example 579, (S) or (R)-3-cyano-N′-((8-cyano-1,2,3,5,6,7-hexahydro-5-indacen-4-yl)carbamoyl)-5-(2-hydroxypropan-2-yl) benzenesulfonimidamide], for which the half-maximal inhibitory concentration (IC50) lay in the range of 5 to 30 µM.

As for `CN(C)Cc1ccc(S(N)(=O)=NC(=O)Nc2c3c(cc4c2CC4)CCC3)cc1` (single isomer, unassigned) [Example 580, (R) or (S)-4-((dimethylamino)methyl)-N′-((2,4,5,6-tetrahydro-1H-cyclobuta[f]inden-3 - yl)carbamoyl) benzenesulfonimidamide], the 50% inhibitory concentration (IC50) lay within 0.2 to 1 µM.

As to `CN(C)Cc1ccc(S(N)(=O)=NC(=O)Nc2c3c(cc4c2CC4)CCC3)cc1` (single isomer, unassigned) [Example 581, (S) or (R)-4-((dimethylamino)methyl)-N′-((2,4,5,6-tetrahydro-1H-cyclobuta[f]inden-3-yl)carbamoyl) benzenesulfonimidamide], the half-inhibitory concentration (IC50) lay in the range of 5 to 30 µM.

For the compound `CN(C)Cc1ccc(S(N)(=O)=NC(=O)Nc2c3c(cc4c2CC4)CC3)cc1` (single isomer, unassigned) [Example 582, (R) or (S)-4-((dimethylamino)methyl)-N′-(tricyclo[6.2.0.03,6]deca-1,3(6),7-trien-2-ylcarbamoyl) benzenesulfonimidamide], the IC50 is 0.2 to 1 µM.

Turning to `CN(C)Cc1ccc(S(N)(=O)=NC(=O)Nc2c3c(cc4c2CC4)CC3)cc1` (single isomer, unassigned) [Example 583, (S) or (R)-4-((dimethylamino)methyl)-N′-(tricyclo[6.2.0.03,6]deca-1,3(6),7-trien-2-ylcarbamoyl) benzenesulfonimidamide], the IC50 was in the range of 5 to 30 µM.

As to `CNC(C)(C)c1ccc(S(N)(=O)=NC(=O)Nc2c3c(cc4c2CCC4)CCC3)c(F)c1` (single isomer, unassigned) [Example 592, (S) or (R)-2-fluoro-N′-((1,2,3,5,6,7-hexahydro-s-indacen-4-yl)carbamoyl)-4-(2-(methylamino)propan-2-yl) benzenesulfonimidamide], the IC50 was 5 to 30 µM.

Turning to `CNC(C)(C)c1ccc(S(N)(=O)=NC(=O)Nc2c3c(cc4c2CCC4)CCC3)c(F)c1` (single isomer, unassigned) [Example 593, (R) or (S)-2-fluoro-N′-((1,2,3,5,6,7-hexahydro-s-indacen-4-yl)carbamoyl)-4-(2-(methylamino)propan-2-yl) benzenesulfonimidamide], the 50% inhibitory concentration (IC50) is 0.2 to 1 µM.

Take `N[S@@](=O)(=NC(=O)Nc1c2c(cc3c1CCC3)CCC2)c1ccc(C(F)F)nc1` (single isomer, unassigned) [Example 595, (R) or (S)-6-(difluoromethyl)-N′-((1,2,3,5,6,7-hexahydroxy-indacen-4-yl)carbamovl)pyridine-3-sulfonimidamide]: the half-maximal inhibitory concentration (IC50) lay within 1 to 5 µM.

Regarding `CC(C)(O)c1ncc(S(N)(=O)=NC(=O)Nc2c3c(c(Cl)c4c2CCC4)CCC3)s1` (single isomer, unassigned) [Example 596, (S) or (R)-N′-((8-chloro-1,2,3,5,6,7-hexahydro-s-indacen-4-yl)carbamoyl)-2-(2-hydroxypropan-2-yl)thiazole-5-sulfonimidamide], the half-inhibitory concentration (IC50) was in the range of 1 to 5 µM.

Take `CC(C)(O)c1ncc(S(N)(=O)=NC(=O)Nc2c3c(c(Cl)c4c2CCC4)CCC3)s1` (single isomer, unassigned) [Example 597, (R) or (S)-N′-((8-chloro-1,2,3,5,6,7-hexahydro-s-indacen-4-yl)carbamoyl)-2-(2-hydroxypropan-2-yl)thiazole-5-sulfonimidamide]: the IC50 fell in the range of 0.04 to 0.2 µM.

As to `CC(C)(O)c1csc(S(N)(=O)=NC(=O)Nc2c3c(cc4c2CCC4=O)CCC3)c1` (single isomer, unassigned) [Example 598, (R) or (S)-4-(2-hydroxypropan-2-yl)-N′-((1-oxo-1,2,3,5,6,7-hexahydro-s-indacen-4-yl)carbamoyl) thiophene-2-sulfonimidamide], the 50% inhibitory concentration (IC50) is 0.2 to 1 µM.

For `CC(C)(O)c1csc(S(N)(=O)=NC(=O)Nc2c3c(cc4c2CCC4=O)CCC3)c1` (single isomer, unassigned) [Example 599, (S) or (R)-4-(2-hydroxypropan-2-yl)-N′-((1-oxo-1,2,3,5,6,7-hexahydro-s-indacen-4-yl)carbamoyl) thiophene-2-sulfonimidamide], the IC50 lay within 5 to 30 µM.

As to `CC(C)(O)c1cc(F)c(S(N)(=O)=NC(=O)Nc2c3c(cc4c2CCC4=O)CCC3)s1` (single isomer, unassigned) [Example 600, (R) or (S)-3-fluoro-5-(2-hydroxypropan-2-yl)-N′-((1-oxo-1,2,3,5,6,7-hexahydro-s-indacen-4-yl)carbamoyl)thiophene-2-sulfonimidamide], the IC50 fell in the range of 0.2 to 1 µM.

On to `CC(C)(O)c1cc(F)c(S(N)(=O)=NC(=O)Nc2c3c(cc4c2CCC4=O)CCC3)s1` (single isomer, unassigned) [Example 601, (S) or (R)-3-fluoro-5-(2-hydroxypropan-2-yl)-N′-((1-oxo-1,2,3,5,6,7-hexahydro-s-indacen-4-yl)carbamoyl)thiophene-2-sulfonimidamide], for which the IC50 was in the range of 5 to 30 µM.

Turning to `CNC(C)(C)c1ccc(S(N)(=O)=NC(=O)Nc2c3c(cc4c2CCC4)CCC3)cc1` (single isomer, unassigned) [Example 602, (R) or (S)-N′-((1,2,3,5,6,7-hexahydro-s-indacen-4-yl)carbamoyl)-4-(2-(methylamino)propan-2-yl) benzenesuIfonimidamide], the IC50 was in the range of 0.2 to 1 µM.

The test is the same for the next values; noted with them: hTHP-1 assay containing 2% fetal bovine serum, Table B2, given as bound; read-out: IC50.
On to `N[S@](=O)(=NC(=O)Nc1c2c(cc3c1CCC3)CCC2)c1ccc(OC(F)F)cc1` (single isomer, unassigned) [Example 577, (S) or (R)-4-(difluoromethoxy)-N′-((1,2,3,5,6,7-hexahydro-s-indacen-4-yl)carbamoyl) benzenesulfonimidamide], for which the IC50 was above 30 µM.

Consider `NS(=O)(=NC(=O)Nc1c2c(cc3c1CCC3)CCC2)c1ccc(C2CCCC2)nc1` (single isomer, unassigned) [Example 587, (R) or (S)-6-cyclopentyl-N′-((1,2,3,5,6,7-hexahydro-s-indacen-4-yl)carbamoyl)pyridine-3-sulfonimidamide], for which the IC50 was above 30 µM.

`N[S@](=O)(=NC(=O)Nc1c2c(cc3c1CCC3)CCC2)c1ccc(C(F)F)nc1` (single isomer, unassigned) [Example 594, (S) or (R)-6-(difluoromethyl)-N′-((1,2,3,5,6,7-hexahydroxy-indacen-4-yl)carbamoyl) pyridine-3-sulfonimidamide]: the IC50 was above 30 µM.

By IC50 is commonly meant the point on the concentration scale where inhibition reaches its midpoint.
